The source of these data is publication PMC11274654 (Biomedicines, 2024).

Experiment [1] relates to mouse BMSCs (mBMSCs). Description: Nodule mineralization (Alizarin Red S) in mBMSCs. It counts as cell-based. The note with it: 21 days post-treatment, differentiation medium. As for the experimental part:
(§1) Rat and mouse BMSCs were seeded at a density of 1 × 10^6 cells/well in a 6-well plate, vehicle or MTZ (1 nM) treatment was conducted, and the media were changed every alternate day for 21 days using a differentiation medium [10% FBS, β-glycerophosphate (10 mM), ascorbic acid (50 µg/mL), and dexamethasone (100 nM) in α-MEM].
(§2) Cells were fixed with 10% formalin for 15 min and stained with Alizarin Red for 1 h after 21 days of culture. Moreover, 10% cetylpyridinium chloride (Sigma #C0732) was used to quantify mineralized nodules at a 595 nm wavelength.

Experiment [2] deals with bone regeneration at the callus site in OVX rats. Description: Femur osteotomy model in osteopenic OVX rats, oral MTZ. It counts as in vivo, ovariectomized osteopenic SD rats. Particulars: 235 mg/kg oral, 12 days. As for the experimental part: Femur osteotomy was carried out in adult female Sprague Dawley (SD) rats (200 ± 20 g, 3 months old) and 3-month post-ovariectomized osteopenic SD rats (280 ± 20 g, 6 months old) by inserting a drill bit with a diameter of 0.8 mm from the anterior to the posterior mid-diaphysis of the right femur.
The human equivalent dose for rats is 235 mg/kg; half of this amount, 117 mg/kg, was used for the study. Doses of MTZ (117 mg/kg and 235 mg/kg) were administered daily by the oral route for 12 days. For the formulation study, MTZ@In situ gel and unformulated MTZ were administered every 3 days (total of 4 injections) for a period of 12 days via the subcutaneous route in the osteotomy animal. Each rat received 20 mg/kg, s.c. of bone-seeking fluorochrome calcein 24 h before sacrifice in order to evaluate the new bone formation at the fractured callus.
A SkyScan 1076 μCT scanner (SkyScan, Ltd., Kartuizersweg, Kontich, Belgium) was used to perform a high-resolution μCT for the two-dimensional and three-dimensional assessment of excised bones. The rat bone scanning process used an isotropic voxel pixel size of 18 μm and an X-ray source of 70 kV and […]. Utilizing the SkyScan Nrecon software (Version: 1.7.0.4), cross-sectional reconstruction was performed. […] The Batman software (Version: 1.16.8.0+), with trabecular (3D) bone analysis programs was used for quantification.

In experiment [3] the test system is femur head strength of OVX rats. Description: OVX osteopenia model, femur head compression test. In kind it is in vivo, SD rats. The note with it: 235 mg/kg oral, 3 months. Here is the method: The 10-month-old (265 ± 20 g) SD rats were ovariectomized (OVX) bilaterally and left for 3 months to develop osteopenia. Ovary-intact sham-operated animals were used as a control. A live animal micro-CT was performed to confirm osteopenia, followed by dividing the animals into 3 groups: Sham + vehicle (water, oral), OVX + vehicle (water, oral), and OVX + MTZ (235 mg/kg, oral). Each group had 9 rats, and treatment were administered for 3 months. Calcein (20 mg/kg, s.c.) was injected twice before sacrificing at 10-day intervals. The mechanical compression strength of the femur head was examined by a compression test with a bone strength tester, TK […] (Muromachi Kikai Co., Ltd., Tokyo, Japan), as described before.

In experiment [4] the test system is rat BMSCs (rBMSCs). Description: Nodule mineralization (Alizarin Red S) in rBMSCs. It counts as cell-based. The note with it: 21 days post-treatment, differentiation medium. As for the experimental part: as §1, §2
For experiment [5], the system named is C3H10T1/2 cells. Description: Nodule mineralization (Alizarin Red S) in C3H10T1/2 cells. It counts as cell-based, murine. The note with it: 21 days, differentiation medium. Here is the method: In a different set of experiments, 3 × 10^6 C3H10T1/2 cells were seeded in a 60 mm culture dish. Then, 24 h post-seeding, the vehicle or MTZ treatment was conducted, and the media were changed every alternate day for 21 days using a differentiation medium.
as §2

The test system of experiment [6] is GSK3β phosphorylation in RCO. Briefly: Western blotting of p-GSK/GSK in RCO. In kind it is cell-based, rat. Particulars: 10 nM. Here is the method:
(§3) Western blotting was performed as previously described. Briefly, whole-cell extracts (WCEs) were prepared at indicated time points using RIPA lysis buffer, and aliquots of 30 μg protein per lane were loaded and resolved on SDS-PAGE (10%), followed by blotting onto the PVDF membrane (Millipore Inc., Burlington, MA, USA). The membrane was blocked in 1% BSA, followed by immunoblotting with primary antibodies: Runx2 (ab 76956) (1:1000), pGSK (9323S) (1:1000), and GSK (9315S) (1:1000) at 4 °C overnight. Anti-rabbit HRP secondary antibody (Sigma, catalog number A0545) (1:3000) was used for Runx2, pGSK3β, and GSK3β. Bands were detected by incubating the membranes with ECL substrate (Thermo Fisher Scientific, Waltham, MA, USA) and developed on ChemiDoc (Image Quant LAS 4000, GE Healthcare, Hatfield, UK). Blots were re-probed after washing with mild stripping buffer (1.5% Glycine, 0.1% SDS, and 1% Tween 20).

Experiment [7] deals with bone formation in femur metaphysis of OVX rats. Description: OVX osteopenia model, dynamic bone histomorphometry (double calcein labeling). It counts as in vivo, SD rats. The note with it: 235 mg/kg oral, 3 months. Here is the method: The 10-month-old (265 ± 20 g) SD rats were ovariectomized (OVX) bilaterally and left for 3 months to develop osteopenia. Ovary-intact sham-operated animals were used as a control. A live animal micro-CT was performed to confirm osteopenia, followed by dividing the animals into 3 groups: Sham + vehicle (water, oral), OVX + vehicle (water, oral), and OVX + MTZ (235 mg/kg, oral). Each group had 9 rats, and treatment were administered for 3 months. Calcein (20 mg/kg, s.c.) was injected twice before sacrificing at 10-day intervals.
Two calcein injections were spaced ten days apart for double calcein labeling to perform dynamic histomorphometric assessments. A previously published protocol was used to calculate the bone formation rate/total bone surface (BFR/BS), mineralizing surface/bone surface (MS/BS), and mineral apposition rate (MAR).

For experiment [8], the system named is Runx2 expression in C3H10T1/2 cells. Description: Western blotting of Runx2 in C3H10T1/2 cells. In kind it is cell-based, murine. Particulars: 10 nM. As for the experimental part: as §3

For `Cc1ncc([N+](=O)[O-])n1CCO` [Metronidazole], in experiment [1], the “Osteogenic differentiation and mineralized nodule formation” value is given as “stimulated”. Moreover, in experiment [2], the “Bone volume at the callus site compared to the control group” value is recorded as “increased” and the “Calcein intensity at the callus site compared to the control group” value is listed as “increased”. In experiment [3], the “Energy (femur head compression)” value was “reversed both parameters to sham levels”, the “Maximum power (femur head compression)” value is listed as “reversed both parameters to sham levels” and the “Stiffness (femur head compression)” value is recorded as “failed to increase it”. In experiment [4], the “Osteogenic differentiation and mineralized nodule formation” value is listed as “stimulated”. Besides, the Mineralization result in experiment [5] is “promoted mineralization”. Besides, in experiment [6], the GSK3β phosphorylation entry was “increased GSK3β phosphorylation in a time-dependent manner” and the “Time of maximum effect on GSK3β phosphorylation” value is listed as 15 min. In experiment [7], the BFR result is given as “reversed all parameters to sham levels”, the MAR entry was “reversed all parameters to sham levels” and the MS/BS result was “reversed all parameters to sham levels”. Besides, the Runx2 expression entry in experiment [8] is “increased”.
